{"source": "patent US20080176952A1", "about": "“Management of Ophthalmologic Disorders, Including Macular Degeneration” (priority 2004, published 2008)", "key": {"[1]": {"test_system": "11-cis-retinol biosynthesis (IMH activity) in retinal pigment epithelial membrane system", "experiment": "Effect on 11-cis-retinol biosynthesis (IMH activity) in RPE membranes", "assay_type": "biochemical, bovine", "protocol": "A control reaction mixture without any inhibitor was also incubated at room temperature for 15 min. At the end of the min incubation, all-trans-retinol [11-12-^3H2] (0.2 μM) was added to the reaction mixtures (100 mM Tris pH 8.0, […] of RPE protein, 0.2% BSA 100 μM of DPPC, 1 mM of DTT and 0.2 μM all-trans-retinol [11-12-^3H2]) and incubated at room temperature for 30 min. At the end of this 30 minutes of incubation, an aliquot of the reactions were quenched to verify the equal addition of all-trans-retinol [11,12-^3H2] and the effect of these inhibitors on LRAT. After this the control reaction mixture was incubated with atRA (60 & 6 μM), 13cRA (60 & 6 μM) or 4-HPR (60 & 6 μM) for 15 min. Now all the reaction mixtures were incubated with 30 μM of apo-rCRALBP (100 mM Tris pH 8.0, 7.7 μg of RPE protein, 0.2% BSA 100 μM of DPPC, 1 mM of DTT 30 μM apo-rCRALBP and 0.2 μM all-trans-retinol [11-12-^3H2]) at 37° C. for 30 minutes. At the end of this incubation period the 200 μL reaction mixture was quenched by the addition of 750 μL ice cold methanol after which 100 μL of 1M sodium chloride solution was added, and 500 μl hexane (containing butylated hydroxy toluene at 1 mg/mL) was added to effect extraction of the retinoids. The retinoids were analyzed as previously described (27). The amount of 11-cis-retinol formed was used as a measurement of IMH activity. All experiments were performed in triplicate and the average values of these measurements were used for analysis.\nA control reaction mixture without any inhibitor was also incubated at room temperature for 15 min. At the end of the min incubation, all-trans-retinol [11-12-^3H2] (0.2 μM) was added to the reaction mixtures (100 mM Tris pH 8.0, 76.7 μg of RPE protein, 0.2% BSA 100 μM of DPPC, 1 mM of DTT and 0.2 μM all-trans-retinol [11-12-^3H2]) and incubated at room temperature for 30 min. […] The retinoids were analyzed as previously described (27). […]"}, "mouse RPE65": {"molecular_target": "mouse RPE65", "experiment": "Constants of affinity (Kds) for mouse RPE65", "assay_type": "binding", "settings": "read-out: Kd (constant of affinity) for mouse RPE65", "protocol": "(§1) Fluorescence binding assays: RPE65 in PBS, 1% CHAPS, pH 7.4 was used in the fluorometric titration studies. Protein concentrations were measured by a modified Lowry method (Lowry et al., 1951). All titrations were performed at 25° C. The samples in PBS buffer were excited at 280 nm and the fluorescence was scanned from 300 to 500 nm. Fluorescence measurements, using 450 μL quartz cuvettes with a 0.5 cm path length, were made at 25° C. on a Jobin Yvon Instruments, Fluoromax 2 employing the right-angle detection method.\n(§2) The fluorescence of the protein solution was measured after equilibrating it at 25° C. for 10 min. The sample was then titrated with a solution of retinoid dissolved in dimethyl sulfoxide. In each titration, to a 250 μL solution of the protein an equal amount of retinoid, typically 0.2 μL. was added and thoroughly mixed before allowing it to equilibrate for 10 min prior to recording the fluorescence intensity. […] The binding constant (KD) was calculated from the fluorescence intensity by using the following equation (Gollapalli et al., 2003).\nThe constants of affinity (Kds) of several compounds for mouse RPE65 were determined. […] Thus, the potency of binding is a function of the ester chain length, i.e., the longer the chain length, the stronger the affinity for RPE65 is and the stronger the antagonist is."}, "RPE65": {"molecular_target": "T1, RPE65 (Bos taurus, UniProt Q28175)", "T1 construct": "Frozen bovine eyecups devoid of retinas were purchased from W. L. Lawson Co; tissue W. L. Lawson Co; host or cells: bovine eyecups (retinal pigment epithelium)", "T1 sequence (Q28175 whole entry)": "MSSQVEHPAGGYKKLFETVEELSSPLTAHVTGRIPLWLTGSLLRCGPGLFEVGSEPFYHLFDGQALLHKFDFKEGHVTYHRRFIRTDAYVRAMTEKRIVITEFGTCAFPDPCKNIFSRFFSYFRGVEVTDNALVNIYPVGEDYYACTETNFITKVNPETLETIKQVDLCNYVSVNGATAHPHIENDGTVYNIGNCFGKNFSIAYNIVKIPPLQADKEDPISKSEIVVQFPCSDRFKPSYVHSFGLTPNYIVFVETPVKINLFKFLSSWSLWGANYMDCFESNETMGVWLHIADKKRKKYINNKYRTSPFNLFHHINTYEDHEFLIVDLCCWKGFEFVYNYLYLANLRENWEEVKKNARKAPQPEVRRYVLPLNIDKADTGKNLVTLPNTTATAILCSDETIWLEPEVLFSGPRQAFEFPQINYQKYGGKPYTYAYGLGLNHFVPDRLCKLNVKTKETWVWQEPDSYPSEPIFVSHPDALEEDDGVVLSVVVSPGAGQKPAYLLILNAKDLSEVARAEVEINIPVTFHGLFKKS", "experiment": "Fluorescence binding assay of retinoids and analogs to purified RPE65", "set-up": "species or system bovine", "protocol": "Purification of mRPE65, sRPE65 and rHRPE65: Purification was performed as described before (Ma et al., 2001). The purities of these proteins were verified by silver staining or Coomassie staining and Western blot (1:4000 primary antibody-1 h at room temperature and 1:4000 secondary antibody-0.5 h at room temperature).\nas §1, §2\nwhere P0=Total protein concentration,\nn=number of independent binding sites, R0=Total retixioid concentration at each addition, KD=dissociation constant, Fmax=Fluorescence intensity at saturation, and F0=Initial fluorescence intensity."}, "sRPE65": {"molecular_target": "T2, sRPE65 (Bos taurus, UniProt Q28175)", "T2 construct": "Frozen bovine eyecups devoid of retinas were purchased from W. L. Lawson Co; tissue W. L. Lawson Co; host or cells: bovine eyecups (retinal pigment epithelium)", "T2 sequence (Q28175 whole entry)": "as above", "experiment": "Fluorescence binding of retinoids to purified sRPE65", "set-up": "species or system bovine", "settings": "0.37 μM sRPE65, phosphate buffered saline pH 7.4, 1% CHAPS", "protocol": "as §1\nas §2, with “The sample was then titrated with a solution of retinoid dissolved in dimethyl sulfoxide.” left out\nAs mentioned above, membrane associated RPE65 (mRPE65) stereospecifically binds all-trans-retinyl palmitate. In this example, the binding of retinoids to sRPE65 is measured by the fluorescence methodology already described (Gollapalli, D. R., Maiti, P., Rando, R. R. (2003) RPE65 operates in the vertebrate visual cycle by stereospecifically binding all-trans-retinyl esters. Biochemistry 42, 11824-30). […]"}, "tLRAT": {"molecular_target": "T3, tLRAT (Homo sapiens, UniProt O95237)", "T3 construct": "This form of LRAT has the two N and C-terminal transmembrane domains of LRAT truncated; made in house", "T3 sequence (O95237 31-196 limits assumed)": "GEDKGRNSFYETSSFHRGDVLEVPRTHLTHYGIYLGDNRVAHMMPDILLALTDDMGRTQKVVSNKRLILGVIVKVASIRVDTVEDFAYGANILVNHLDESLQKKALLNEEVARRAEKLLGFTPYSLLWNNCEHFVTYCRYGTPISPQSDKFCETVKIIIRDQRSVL", "experiment": "mRPE65 concentration-dependent esterification of vitamin A by tLRAT", "assay_type": "biochemical", "protocol": "mRPE65 concentration-dependent esterification of vitamin A: The effect of mRPE65 concentration on the rates of all-trans-retinyl palmitate formation was determined by monitoring the tLRAT catalyzed formation of all-trans-retinyl palmitate from added [11,12-^3H2]-all-trans-retinol and mRPE65. It should be noted that all-trans-retinyl palmitate formed from mRPE65 and vitamin A was identified both by its mass spectroscopic and chromatographic properties. The reaction mixture (volume 0.1 mL) contains 100 mM Tris (pH 8.4), 5 μM of tLRAT 0.3% CHAPS, 1 mM dithiothreitol and 5 μM of all-trans-retinol [11,12-^3H2] and mRPE65 (0, 0.008, 0.02, 0.028, 0.04, 0.052, 0.06 and 0.08 μM) incubated for 10 min at room temperature. After 10 min the reaction was quenched with 500 μL methanol, 100 μL of water and 500 μL of hexane. The amount of all-trans-retinyl palmitate [11,12-^3H2] formed as determined by normal phase-HPLC and was used as a measure of activity. The kinetic parameters KM (Kapp) and N were calculated as described before (Segal 1993). Each experiment was done in triplicate, and the data points used are an average of these three points. […]\nIn these experiments, pure mRPE65 and vitamin A are incubated with LRAT and the resultant all-trans-retinyl palmitate is isolated by HPLC. […] Under the same conditions, no observable turnover of DPPC is measured (FIG. 11B)."}, "[2]": {"settings": "purified RPE65, PBS, 1% CHAPS, pH 7.4, 25° C., N=4, read-out: average KD for binding to RPE65"}}, "note": "Read-outs that look alike come from different tables or passages of the source."}
{"molecule": "CC1=C(/C=C/C(C)=C/C=C/C(C)=C\\C(=O)O)C(C)(C)CCC1", "note": "[13-cis-retinoic acid]", "values": [{"measurement": "inhibition of 11-cis-retinol formation", "setting": "[1]; membranes pre-incubated with vitamin A before inhibitor, 60 μM, data not shown", "result": "not susceptible to inhibition"}]}
{"molecule": "CCCCCCCCCCCCCCCC(=O)OC/C=C(C)/C=C/C=C(C)/C=C/C1=C(C)CCCC1(C)C", "note": "[retinyl palmitate]", "values": [{"measurement": "Kd", "setting": "mouse RPE65", "result": 47, "unit": "nM"}, {"measurement": "Kd", "setting": "RPE65; antagonist of RPE65, read-out: KD", "result": 47, "unit": "nM"}, {"measurement": "Kd", "setting": "RPE65; [2]", "result": 47, "unit": "nM"}, {"measurement": "Kd", "setting": "sRPE65", "result": "~1200", "unit": "nM"}]}
{"molecule": "CC1=C(/C=C/C(C)=C/C=C/C(C)=C/C(=O)Nc2ccc(O)cc2)C(C)(C)CCC1", "note": "[N-(4-hydroxyphenyl)retinamide, reference compound]", "values": [{"measurement": "inhibition of 11-cis-retinol formation", "setting": "[1]; membranes pre-incubated with the inhibitor before vitamin A (FIG. 8)", "result": "substantially weaker"}, {"measurement": "Kd", "setting": "RPE65; [2]", "result": "~3550", "unit": "nM"}]}
{"molecule": "CC1=C(/C=C/C(C)=C/C=C/C(C)=C/CO)C(C)(C)CCC1", "note": "[all-trans-retinol, reference compound]", "values": [{"measurement": "Kd", "setting": "sRPE65", "result": "~65", "unit": "nM"}]}
{"molecule": "mRPE65: membrane-associated, palmitoylated form of RPE65; acts as palmitoyl donor for LRAT (protein, UniProt Q16518 2-533, looked up, palmitoylated membrane-associated form, membrane-associated, palmitoylated form of RPE65; acts as palmitoyl donor for LRAT) Retinoid isomerohydrolase: SIQVEHPAGGYKKLFETVEELSSPLTAHVTGRIPLWLTGSLLRCGPGLFEVGSEPFYHLFDGQALLHKFDFKEGHVTYHRRFIRTDAYVRAMTEKRIVITEFGTCAFPDPCKNIFSRFFSYFRGVEVTDNALVNVYPVGEDYYACTETNFITKINPETLETIKQVDLCNYVSVNGATAHPHIENDGTVYNIGNCFGKNFSIAYNIVKIPPLQADKEDPISKSEIVVQFPCSDRFKPSYVHSFGLTPNYIVFVETPVKINLFKFLSSWSLWGANYMDCFESNETMGVWLHIADKKRKKYLNNKYRTSPFNLFHHINTYEDNGFLIVDLCCWKGFEFVYNYLYLANLRENWEEVKKNARKAPQPEVRRYVLPLNIDKADTGKNLVTLPNTTATAILCSDETIWLEPEVLFSGPRQAFEFPQINYQKYCGKPYTYAYGLGLNHFVPDRLCKLNVKTKETWVWQEPDSYPSEPIFVSHPDALEEDDGVVLSVVVSPGAGQKPAYLLILNAKDLSEVARAEVEINIPVTFHGLFKKS", "values": [{"measurement": "Km", "setting": "tLRAT; 5 μM tLRAT, 5 μM all-trans-retinol, sigmoidal kinetics, read-out: KM (Kapp) as palmitoyl donor", "result": 0.03, "unit": "µM"}, {"measurement": "N (Hill plot)", "setting": "tLRAT; tLRAT catalyzed palmitoyl transfer to vitamin A", "result": 2.54}]}
